# Source: patent publication US11261211B2, “19-NOR neuroactive steroids and methods of use thereof” (Sage Therapeutics, Inc., priority 2013, dated 2022)
# Molecular target: α1β2γ2 GABAA receptor (Homo sapiens (Human), UniProt P14867+P47870)
# Assay: Patch clamp electrophysiology of recombinant α1β2γ2 GABAA receptors in LTK cells
# Type: cell-based
# Conditions: LTK, 10 μM compound, Qpatch, Ltk cells, GABA EC20 2 μM; read-out: α1β2γ2 GABA Qpatch in Ltk (Efficacy at 10 μm)
# Experimental: Cellular electrophysiology is used to measure the pharmacological properties of our GABAA receptor modulators in heterologous cell systems. Each compound is tested for its ability to affect GABA mediated currents at a submaximal agonist dose (GABA EC20=2 μM). LTK cells are stably transfected with the α1β2γ2 subunits of the GABA receptor and CHO cells are transiently transfected with the α4β3δ subunits via the Lipofecatamine method. Cells were passaged at a confluence of about 50-80% and then seeded onto 35 mm sterile culture dishes containing 2 ml culture complete medium without antibiotics or antimycotics. Confluent clusters of cells are electrically coupled (Pritchett et al., 1988). Because responses in distant cells are not adequately voltage clamped and because of uncertainties about the extent of coupling (Verdoorn et al., 1990), cells were cultivated at a density that enables the recording of single cells (without visible connections to other cells).
# Whole cell currents were measured with HEKA EPC-10 amplifiers using PatchMaster software or by using the high throughput QPatch platform (Sophion). Bath solution for all experiments contained (in mM): NaCl 137 mM, KCl 4 mM, CaCl2 1.8 mM, MgCl2 1 mM, HEPES 10 mM, D-Glucose 10 mM, pH (NaOH) 7.4. In some cases 0.005% cremophor was also added. Intracellular (pipette) solution contained: KCl 130 mM, MgCl2 1 mM, Mg-ATP 5 mM, HEPES 10 mM, EGTA 5 mM, pH 7.2. During experiments, cells and solutions were maintained at room temperature (19° C.-30° C.). For manual patch clamp recordings, cell culture dishes were placed on the dish holder of the microscope and continuously perfused (1 ml/min) with bath solution. After formation of a Gigaohm seal between the patch electrodes and the cell (pipette resistance range: 2.5 MΩ-6.0 MΩ; seal resistance range: >1 GΩ) the cell membrane across the pipette tip was ruptured to assure electrical access to the cell interior (whole-cell patch-configuration). For experiments using the QPatch system, cells were transferred as suspension to the QPatch system in the bath solution and automated whole cell recordings were performed.
# Cells were voltage clamped at a holding potential of −80 mV. For the analysis of test articles, GABA receptors were stimulated by 2 μM GABA after sequential pre-incubation of increasing concentrations of the test article. Pre-incubation duration was 30 s and the duration of the GABA stimulus was 2 s. Test articles were dissolved in DMSO to form stock solutions (10 mM). Test articles were diluted to 0.01, 0.1, 1, and 10 μM in bath solution. All concentrations of test articles were tested on each cell. The relative percentage potentiation was defined as the peak amplitude in response to GABA EC20 in the presence of the test article divided by the peak amplitude in response to GABA EC20 alone, multiplied by 100.
row,Structure (SMILES),activity at 10 µM
1,CC[C@@]1(O)CC[C@H]2[C@@H](CC[C@@H]3[C@@H]2CC[C@]2(C)[C@@H](C(=O)Cn4ncc5ccncc54)CC[C@@H]32)C1 [SB-32],100 to 500%
2,CC[C@@]1(O)CC[C@H]2[C@@H](CC[C@@H]3[C@@H]2CC[C@]2(C)[C@@H](C(=O)Cn4nc5ccncc5n4)CC[C@@H]32)C1 [SB-34],> 500%
3,CC[C@@]1(O)CC[C@H]2[C@@H](CC[C@@H]3[C@@H]2CC[C@]2(C)[C@@H](C(=O)Cn4nnc5ccccc54)CC[C@@H]32)C1 [SB-35],10 to 100%
4,CC[C@@]1(O)CC[C@H]2[C@@H](CC[C@@H]3[C@@H]2CC[C@]2(C)[C@@H](C(=O)Cn4nc5ccccc5n4)CC[C@@H]32)C1 [SB-36],100 to 500%
5,CC[C@@]1(O)CC[C@H]2[C@@H](CC[C@@H]3[C@@H]2CC[C@]2(C)[C@@H](C(=O)Cn4nc5ccc(F)cc5n4)CC[C@@H]32)C1 [SB-39],10 to 100%
6,COC[C@@]1(O)CC[C@H]2[C@@H](CC[C@@H]3[C@@H]2CC[C@]2(C)[C@@H](C(=O)Cn4nc5ccc(F)cc5n4)CC[C@@H]32)C1 [SB-41],10 to 100%
7,COC[C@@]1(O)CC[C@H]2[C@@H](CC[C@@H]3[C@@H]2CC[C@]2(C)[C@@H](C(=O)Cn4nnc5cnccc54)CC[C@@H]32)C1 [SB-43],100 to 500%
8,COC[C@@]1(O)CC[C@H]2[C@@H](CC[C@@H]3[C@@H]2CC[C@]2(C)[C@@H](C(=O)Cn4nc5ccncc5n4)CC[C@@H]32)C1 [SB-44],> 500%
9,COC[C@@]1(O)CC[C@H]2[C@@H](CC[C@@H]3[C@@H]2CC[C@]2(C)[C@@H](C(=O)Cn4ncc5ccncc54)CC[C@@H]32)C1 [SB-46],100 to 500%
10,COC[C@@]1(O)CC[C@H]2[C@@H](CC[C@@H]3[C@@H]2CC[C@]2(C)[C@@H](C(=O)Cn4cc5ncccc5n4)CC[C@@H]32)C1 [SB-47],> 500%
11,COC[C@@]1(O)CC[C@H]2[C@@H](CC[C@@H]3[C@@H]2CC[C@]2(C)[C@@H](C(=O)Cn4ncc5ncccc54)CC[C@@H]32)C1 [SB-48],> 500%
12,COC[C@@]1(O)CC[C@H]2[C@@H](CC[C@@H]3[C@@H]2CC[C@]2(C)[C@@H](C(=O)Cn4nnc5ccccc54)CC[C@@H]32)C1 [SB-49],100 to 500%
13,CCOC[C@@]1(O)CC[C@H]2[C@@H](CC[C@@H]3[C@@H]2CC[C@]2(C)[C@@H](C(=O)Cn4nnc5ccccc54)CC[C@@H]32)C1 [SB-52],100 to 500%
14,CCOC[C@@]1(O)CC[C@H]2[C@@H](CC[C@@H]3[C@@H]2CC[C@]2(C)[C@@H](C(=O)Cn4nc5ccccc5n4)CC[C@@H]32)C1 [SB-53],10 to 100%
15,CCOC[C@@]1(O)CC[C@H]2[C@@H](CC[C@@H]3[C@@H]2CC[C@]2(C)[C@@H](C(=O)Cn4ncc5ncccc54)CC[C@@H]32)C1 [SB-54],100 to 500%
16,CCOC[C@@]1(O)CC[C@H]2[C@@H](CC[C@@H]3[C@@H]2CC[C@]2(C)[C@@H](C(=O)Cn4cc5ncccc5n4)CC[C@@H]32)C1 [SB-55],10 to 100%
17,CCOC[C@@]1(O)CC[C@H]2[C@@H](CC[C@@H]3[C@@H]2CC[C@]2(C)[C@@H](C(=O)Cn4ncc5ccncc54)CC[C@@H]32)C1 [SB-56],10 to 100%
18,CCOC[C@@]1(O)CC[C@H]2[C@@H](CC[C@@H]3[C@@H]2CC[C@]2(C)[C@@H](C(=O)Cn4cc5ccncc5n4)CC[C@@H]32)C1 [SB-57],100 to 500%
19,CCOC[C@@]1(O)CC[C@H]2[C@@H](CC[C@@H]3[C@@H]2CC[C@]2(C)[C@@H](C(=O)Cn4nc5ccncc5n4)CC[C@@H]32)C1 [SB-59],100 to 500%
20,CCOC[C@@]1(O)CC[C@H]2[C@@H](CC[C@@H]3[C@@H]2CC[C@]2(C)[C@@H](C(=O)Cn4nc5ccc(F)cc5n4)CC[C@@H]32)C1 [SB-60],10 to 100%
21,COc1ccc2nn(CC(=O)[C@H]3CC[C@H]4[C@@H]5CC[C@H]6C[C@@](O)(CF)CC[C@@H]6[C@H]5CC[C@]34C)nc2c1 [SG-21],10 to 100%
22,COc1ccc2nnn(CC(=O)[C@H]3CC[C@H]4[C@@H]5CC[C@H]6C[C@@](O)(CF)CC[C@@H]6[C@H]5CC[C@]34C)c2c1 [SG-22],100 to 500%
